# Measurements reported in patent US7501421B2, “Benzoxazole and benzothiazole derivatives as 5-hydroxytryptamine-6 ligands” (Wyeth, priority 2006, dated 2009).
# Where a name gives a salt, the structure may show the parent alone.
# Target: human cloned 5-HT6 receptors (Homo sapiens, UniProt P50406)
# Assay: Evaluation of 5-HT6 binding affinity ([3H]-LSD radioligand binding)
# human cloned 5-HT6 receptors, sequence (P50406 whole entry): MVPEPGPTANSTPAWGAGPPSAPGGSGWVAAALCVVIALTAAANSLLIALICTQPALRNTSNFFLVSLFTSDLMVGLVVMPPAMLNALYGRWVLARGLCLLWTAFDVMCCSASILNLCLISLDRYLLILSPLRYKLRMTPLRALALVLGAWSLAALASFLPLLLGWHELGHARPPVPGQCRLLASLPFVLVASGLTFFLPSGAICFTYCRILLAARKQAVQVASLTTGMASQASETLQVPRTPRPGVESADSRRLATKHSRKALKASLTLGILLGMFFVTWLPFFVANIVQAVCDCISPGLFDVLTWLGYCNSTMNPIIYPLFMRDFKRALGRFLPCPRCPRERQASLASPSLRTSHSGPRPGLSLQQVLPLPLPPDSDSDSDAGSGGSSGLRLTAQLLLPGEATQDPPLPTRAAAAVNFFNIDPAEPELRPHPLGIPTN
row,Ki [nM],SMILES
1,67,O=S(=O)(c1ccccc1)c1cccc2oc(N3CCNCC3)nc12 [Example 13]
2,10,"CN1CCN(c2nc3c(S(=O)(=O)c4cccc5ccccc45)cccc3o2)CC1 [Example 22, 2-(4-Methylpiperazin-1-yl)-4-(1-naphthylsulfonyl)benzoxazole Dihydrochloride]"
3,78,O=S(=O)(c1cccc2ccccc12)c1cccc2oc(N3CCN(C4CCCC4)CC3)nc12 [Example 30]
4,91,O=S(=O)(c1cccc2ccccc12)c1cccc2oc(N3CCN(C4CCCCC4)CC3)nc12 [Example 31]
5,7,"O=S(=O)(c1cccc2ccccc12)c1cccc2nc(N3CCNCC3)oc12 [Example 34, 7-(1-naphthylsulfonyl)-2-piperazin-1-ylbenzoxazole Dihydrochloride]"
6,500,"O=S(=O)(c1ccc2nc(N3CCNCC3)sc2c1)c1cccc2ccccc12 [Example 41, 6-(1-Naphthylsulfonyl)-2-piperazin-1-ylbenzothiazole Dihydrochloride]"
